Columns and labels:
LC3-II = test: Autophagy activity of epidermal keratinocytes (LC3-II accumulation with chloroquine diphosphate, Western blotting); type: cell-based, human; conditions: chloroquine diphosphate 10 μM, 24 hours, FIG. 18
Description: Normal human neonatal foreskin-derived epidermal keratinocytes (Human Epidermal Keratinocytes, neonatal (HEKn) lightly; keratinocytes) were purchased from Thermo Fisher Scientific. […] The keratinocytes were cultured in a grow medium (Epilife) epidermal keratinocytes (Thermo Fisher Scientific) supplemented with a growth additive (Humedia-KG) (manufactured by Kurabo Industries Ltd.) at 37° C. in 5 vol % CO2 atmospheric conditions.
Keratinocytes were seeded in a 6-well plate at a density of 1.5×10^5 cells/well (2 mL/well). The following day, proguanil was added so as to obtain a final concentration of 0.3, 1, 3, 10 or 30 μM. Culture was performed at 37° C. in 5 vol % CO2 atmospheric conditions. As a control, the same amount of DMSO was added. […] The following day, Chloroquine diphosphate attached to LC3B Antibody Kit for Autophagy (Thermo Fisher Scientific) was added so as to obtain a final concentration of 10 μM. Culture was performed at 37° C. in 5 vol % CO2 atmospheric conditions for 24 hours. After completion of the culture, SDS-PAGE and western blotting were performed in accordance with the method as mentioned above. As a primary antibody, anti-LC3B (1:1000) attached to the kit mentioned above was used. […] Expression of β-actin as the internal standard was evaluated by using monoclonal antibody specific for β-actin (Sigma-Aldrich, 1:5000).

human skin tissue [1] = test: Skin color darkening in cultured human skin tissue (appearance observed and photographed); type: cell-based
Description: (§1) (1) A normal human skin tissue obtained at the time of a surgical operation was purchased from a Skin Bank of the United States, National Disease Research Interchange (NDRI). The human skin tissue, from which subcutaneous fat was previously removed, was cut into pieces having a size of about 1 cm×about 1 cm by knife and cultured by using a 6-well plate at 37° C. under a 5% CO2 atmosphere. Advanced-DMEM medium containing 10% (v/v) Fetal Bovine Serum (FBS) (Life Technologies, respectively) was used for culture.
(2) The human skin tissue prepared in accordance with the method described in the above (1) was allowed to stand still in the 6-well plate. Then, phenformin was added in the medium so as to have a final concentration of 300 μM and tissue culture was initiated. The medium replacement was performed every 2 to 3 days. Six days or eight days later, the appearance of the skin tissue was observed and photographed.
A human skin tissue prepared in accordance with the method of Example 1 (1) was allowed to stand still in a 6-well plate. Then, phenformin was added in a medium at a final concentration of 100, 200 or 300 μM and tissue culture was initiated. Four days later, the appearance of the skin tissue was observed and photographed.
Skin tissues prepared in accordance with the method of Example 1 (1) were allowed to stand still in 6-well plates. […]

human skin tissue [2] = test: Fontana-Masson staining of cultured human skin tissue (melanin deposition); type: cell-based
Description: as §1, with “culture. (3) Next, the skin tissue cultured was subjected to Fontana-Masson staining to observe deposition of melanin. In the staining, Fontana-Masson Stain Kit manufactured by American […] Scientific, Inc. was used.” for “culture.”

LC3-II and p62 proteins [3] = test: Autophagy markers LC3-II and p62 in epidermal cells (Western blotting); type: cell-based, human; conditions: berberine 10, 30 or 60 μM, 24 hours, FIG. 7
Description: As a part of elucidation of the skin color darkening action of berberine, the effect on autophagy in epidermal cells was examined. Berberine was added in a medium for the epidermal cells seeded in a 6-well plate at a final concentration of 10, 30 or 60 μM and the epidermal cells were cultured for 24 hours. Protein was extracted and subjected to Western-blotting analysis to determine the expression levels of LC3-II and p62 proteins serving as markers for autophagy.
As a part of elucidation of skin color darkening action of phenformin and berberine, an effect of phenformin and berberine on melanosome decomposition in, epidermal cells was examined. The epidermal cells were isolated from a foreskin tissue obtained from a Skin Bank of the United States, National Disease Research Interchange (NDRI) in accordance with a predetermined method, and cultured. Melanosomes were prepared from MNT-1 cell strain in accordance with a predetermined method (Murase et al. (2013), J Invest Dermatol, 133: 2416-2424). A predetermined amount of melanosomes was added to epidermal cells and the cells were cultured for 24 hours. Melanosome prepared from MNT-1 cell strain cultured in an area of 35 cm^2 was added per well of the 6-well plate. […]

Pmel17 = test: Melanosome decomposition in epidermal cells that incorporated MNT-1 melanosomes (Pmel17 Western blotting); type: cell-based, human; conditions: 24 hours, FIG. 8
Description: As a part of elucidation of skin color darkening action of phenformin and berberine, an effect of phenformin and berberine on melanosome decomposition in, epidermal cells was examined. The epidermal cells were isolated from a foreskin tissue obtained from a Skin Bank of the United States, National Disease Research Interchange (NDRI) in accordance with a predetermined method, and cultured. Melanosomes were prepared from MNT-1 cell strain in accordance with a predetermined method (Murase et al. (2013), J Invest Dermatol, 133: 2416-2424). A predetermined amount of melanosomes was added to epidermal cells and the cells were cultured for 24 hours. Melanosome prepared from MNT-1 cell strain cultured in an area of 35 cm^2 was added per well of the 6-well plate. After the cells were washed with PBS, the epidermal cells which had incorporated melanosome therein were added with phenformin at a final concentration of 100 or 200 μM, berberine at a final concentration of 10, 30 or 60 μM and a Goldenseal extract rich in berberine at a final concentration 0.2 or 0.5% (v/v), and the cells were cultured for a further 24 hours. Protein was extracted and subjected to Western-blotting analysis to determine the expression level of Pmel17, a major protein constituting melanosome.

AMPK = conditions: Non-Patent Literature 2; cited from earlier work
Pmel17 protein = test: Western blotting of Pmel17 protein in cultured human skin tissue; type: cell-based; conditions: cultured 6 days with or without phenformin, FIG. 3A
Description: as §1
The skin tissue prepared in accordance with the method of Example 1 (1) was allowed to stand still in a 6-well plate and cultured in the presence or absence of phenformin for 6 days. Protein was extracted from the skin tissue and used for quantitative analysis of Pmel17 protein, which is a major protein constituting a melanosome, by Western-blotting. Using a mouse anti-human Pmel17 antibody (DAKO) as a primary antibody and a goat anti-mouse IgG antibody as a secondary antibody, signals were detected by using ECL prime reagent (GE Healthcare) and ODYSSEY Fc Imaging System (LICOR). Beta-actin protein as an internal standard was detected in the same manner.

LC3-II and p62 proteins [4] = test: Western blotting of autophagy markers LC3-II and p62 in cultured human skin tissue; type: cell-based; conditions: 4 days, phenformin at different concentrations, FIG. 3B
Description: as §1
Further, the skin tissue prepared in accordance with the method of Example 1 (1) was allowed to stand still in a 6-well plate and cultured in the absence or presence of phenformin at a different concentration for 4 days. Proteins were extracted from the skin tissues and subjected to Western-blotting analysis. In this manner, the expression levels of LC3-II and p62 proteins, which are localized in autophagosome membrane and finally decomposed by autophagy, were determined. A mouse anti-human LC3 antibody (Cosmo Bio) and rabbit anti-human p62 antibody (MBL International) were used as primary antibodies.

human hair follicle = test: Hair color darkening in cultured human hair follicle (Fontana-Masson staining); type: cell-based; conditions: phenformin 200 μM, Day 5, FIG. 10
LC3-II and p62 proteins [5] = test: Autophagy markers LC3-II and p62 in cultured human hair follicle (Western blotting); type: cell-based; conditions: phenformin 200 μM, FIG. 11
Description: A human hair follicle was surgically isolated from a normal human scalp tissue ([…]), which was obtained at the time of surgical operation, and given by a USA dermatologist. The isolated human hair follicle was cultured at 37° C. under a 5% CO2 atmosphere in William E medium supplemented with 20 μg/mL insulin (Sigma-Aldrich), 40 ng/mL hydrocortisone (Sigma-Aldrich), 2 mM L-glutamine (Life Technologies) and a 1% (v/v) penicillin/streptomycin solution (Life Technologies) (all were final concentrations). The isolated human hair follicle was allowed to stand still in a 24-well plate and phenformin was added at a final concentration of 200 μM in the medium. Tissue culture was initiated. Medium replacement was performed Day 1 and Day 3 after the initiation of culture. Follicular tissue at Day 5 after the initiation of culture was embedded in OCT compound (TissueTek) and frozen. These follicular tissues were subjected to Fontana-Masson staining and deposition of melanin was observed.
From the human hair follicle cultured in accordance with the method of Example 8, protein was extracted and subjected to Western-blotting analysis. In this manner, expression levels of autophagy markers, i.e., LC3-II and p62 proteins, were analyzed.

[6] = test system: AMPK (AMP-activated protein kinase); conditions: human embryonic kidney cells (HEK 293 T cells); Non-Patent Literature 1; cited from earlier work

Structure (SMILES): CCN(CC)CCCC(C)Nc1ccnc2cc(Cl)ccc12 (stereo not drawn) [Chloroquine diphosphate]
- accumulation of LC3-II (LC3-II): Accumulation of LC3-II was induced

Structure (SMILES): COc1ccc2cc3[n+](cc2c1OC)CCc1cc2c(cc1-3)OCO2 [berberine, Berberine]
- darkening of skin color (human skin tissue [1]; berberine 10 or 30 μM (Caucasian) and 30 or 100 μM (African American), six or four days, FIGS. 5 and 6): darkening of skin color was induced in a berberine dose-dependent manner
- deposition of melanin on the epidermal layer (tissue staining) (human skin tissue [2]; berberine 10 or 30 μM and 30 or 100 μM, FIGS. 5 and 6): Deposition of melanin on the epidermal layer was confirmed
- expression level of LC3-II protein (LC3-II and p62 proteins [3]): LC3-II and p62 proteins are accumulated in a berberine dose-dependent manner
- expression level of p62 protein (LC3-II and p62 proteins [3]): LC3-II and p62 proteins are accumulated in a berberine dose-dependent manner
- expression level of Pmel17 (Pmel17; berberine 10, 30 or 60 μM): accumulation of Pmel17 protein in a dose-dependent manner was observed
- AMPK activation action (AMPK): has an AMPK activation action

Structure (SMILES): N=C(N)NC(=N)NCCc1ccccc1 [phenformin, Phenformin]
- skin color darkening (dose dependent) (human skin tissue [1]; phenformin 100, 200 or 300 μM, 4 days, FIG. 4): Recognizable darkening was observed in a dose-dependent manner
- accumulation of melanin in the epidermis (human skin tissue [2]; phenformin 300 μM, skin tissue, FIGS. 2A, 2B): significant accumulation of melanin in the epidermis was observed
- melanin deposition (human skin tissue [2]; phenformin 100, 200 or 300 μM, 4 days, data not shown): melanin deposition, which is correlated with a change in skin color, was confirmed
- amount of Pmel17 protein (Pmel17 protein): amount of Pmel17 protein is increased
- expression level of LC3-II protein (LC3-II and p62 proteins [4]): accumulation on both markers was observed
- expression level of p62 protein (LC3-II and p62 proteins [4]): accumulation on both markers was observed
- expression level of Pmel17 (Pmel17; phenformin 100 or 200 μM): accumulation of Pmel17 protein in a dose-dependent manner was observed
- hair color darkening (human hair follicle): Apparent hair color darkening was induced
- expression level of LC3-II protein (LC3-II and p62 proteins [5]): Accumulation of LC3-II and p62 proteins by addition of phenformin was observed
- expression level of p62 protein (LC3-II and p62 proteins [5]): Accumulation of LC3-II and p62 proteins by addition of phenformin was observed
- autophagy [6]: activates autophagy through activation of AMPK
